The values below come from publication PMC7024361, “Vaginal Polyelectrolyte Layer-by-Layer Films Based on Chitosan Derivatives and Eudragit® S100 for pH Responsive Release of Tenofovir” (Marine Drugs, 2020).

What is called CC50 is the concentration that lowers cell viability or growth by half. A lower CC50 goes with greater toxicity to the cells.

Molecules are shown by their SMILES. In brackets after ≈: the same amount, converted by molar mass. Bounds are passed on as bounds.

Series [1] can be described thus: Material cytotoxicity, CellTiter Glo. The class given is cell-based. The conditions noted are these: human, maximum concentration tested 1000 µg/mL. As to the method:
To study cell toxicity, the materials were incubated in culture media at 37 °C and 5% CO2 for 48 h before the assay to ensure that any potential toxic component would be present in the dilutions to be tested. The cell culture was then treated with a suspension of base 5 serial dilutions of the most concentrated suspension (1000 µg/mL). Experiments were performed in lymphoblastic (MT-2) and macrophage-monocyte (THP-1) derived cell lines to evaluate toxicity on the immune cells present in vaginal or uterine mucosae, and in a uterine epithelial cell line (HEC-1A) to evaluate the potential damage to mucosal integrity (Figure 12).
Three human cell lines were used: a lymphoblastic cell line, MT-2 [65], a macrophage-monocyte derived cell line, THP-1 (ATCC® TIB-202) and a uterine/endometrial epithelial cell line, HEC-1A (ATCC® HTB-112™) (kindly provided by Maria Angeles Muñoz). All the cell lines were cultured in RPMI 1640 medium supplemented with 10 % (v/v) fetal bovine serum, 2 mM L-glutamine and […] streptomycin (all Whittaker M.A. Bio-Products, Walkerville, MD, USA) at 37 °C in a humidified atmosphere of 5 % CO2. To detach the HEC-1-A cells, the medium was removed and the flask was rinsed during 10 min with 1 to 2 mL of trypsin 0.25%—EDTA 0.03% solution. The medium was replaced every three days after cell centrifugation at 1500 rpm for 5 min.
Cell toxicity was measured using the CellTiter Glo kit (Promega, Madison, WI, USA). Cells were incubated in 96-well plates at a density of […] cells per well (MT-2 and THP-1) and 2 × 10^4 (HEC-1A) in complete medium. To assess the cytotoxic effect, cells were exposed to fresh medium containing different concentrations of lactic acid, tartaric acid, citric acid, TEC and ES100 suspensions, or the same concentration of PBS 1× as control. Experiments were performed in triplicate and the culture was maintained at 37 °C and 5% CO2 humidified atmosphere for 48 h. A standard method was followed to suspend the materials in PBS 1× [66]. After incubation for 48 h, the medium was removed from cell cultures and 50 µL of CellTiter Glo reactive was added to each well on the plate. Relative luminescence units (RLUs) were measured in a luminometer (Sirius, Berthold Detection Systems). Cytotoxic concentration 50 (CC50) values were calculated using GraphPad Prism Software (non-linear regression, log inhibitor versus response). The results of the cytotoxic assay are shown as the average of at least three individual experiments.
In general terms: Cellular ATP, detected with luciferase, serves as a proxy for viable cell number.

The next series deals with HIV. The arrangement: method as in PMID 22964245. The conditions noted are these: women; cited from earlier work.
[2] abbreviates: HEC-1A uterine/endometrial epithelial cells.
[3] abbreviates: MT-2 lymphoblastic cells, MT-2, 48 h.
[4] abbreviates: THP-1 macrophage-monocyte derived cells, THP1, 48 h.

Consider `O=C(O)CC(O)(CC(=O)O)C(=O)O` [Citric acid, citric acid], for which the CC50 at 48 h is above 1000 µg/mL in series [1] (setting [2]), above 1000 µg/mL in series [1] (setting [3]) and around 1000 µg/mL (≈ 5.2 mM) in series [1] (setting [4]).
As for `CC(O)C(=O)O` (stereo not drawn) [Lactic acid, L(+)-Lactic acid], the CC50 at 48 h in series [1] (setting [2]), in series [1] (setting [3]) and in series [1] (setting [4]) was above 1000 µg/mL in each case.
Consider `CCOC(=O)CC(O)(CC(=O)OCC)C(=O)OCC` [TEC, triethylcitrate], for which the CC50 at 48 h in series [1] (setting [2]) was above 1000 µg/mL; in series [1] (setting [3]), around 1000 µg/mL (≈ 3.62 mM); in series [1] (setting [4]), above 1000 µg/mL.
As to `C[C@H](Cn1cnc2c(N)ncnc21)OCP(=O)(O)O` [TFV, Tenofovir], the “cervicovaginal fluid concentration that confers protection against HIV” value in the series with HIV was 1000 ng/mL.
On to `O=C(O)C(O)C(O)C(=O)O` (stereo not drawn) [Tartaric acid, L(+)-Tartaric acid], for which the CC50 at 48 h in series [1] (setting [2]) was around 200 µg/mL (≈ 1.33 mM); in series [1] (setting [3]) it was above 1000 µg/mL; in series [1] (setting [4]), above 1000 µg/mL.
